Laboratory results published in patent publication US20160137639A1, “TRIAZOLE-ISOXAZOLE COMPOUND AND MEDICAL USE THEREOF” (JAPAN TOBACCO INC., priority 2012, published 2016).

Assays:
human RORγ = target: T1, human RORγ (Homo sapiens, UniProt P51449); experiment: Luciferase reporter gene assay of inhibitory effect against RORγ transcriptional activity (GAL4-hRORγ plasmid in CHO cells); format: cell-based; settings: read-out: LUC EC50 hRORg
T1 construct: human, NM_005060.3 and from Ser253 to Lys518; expressed in transfected cells; host or cells: CHO cells (transient co-transfection with pG5-Luc reporter)
T1 sequence (P51449 253-518): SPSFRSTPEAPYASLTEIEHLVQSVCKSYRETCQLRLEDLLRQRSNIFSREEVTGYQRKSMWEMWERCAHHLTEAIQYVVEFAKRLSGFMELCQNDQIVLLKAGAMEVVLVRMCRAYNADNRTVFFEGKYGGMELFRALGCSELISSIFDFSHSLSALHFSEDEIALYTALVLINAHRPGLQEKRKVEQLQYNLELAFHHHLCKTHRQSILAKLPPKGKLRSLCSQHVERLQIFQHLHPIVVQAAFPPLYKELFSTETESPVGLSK

mouse RORγ = target: T2, mouse RORγ (Mus musculus, UniProt P51450); experiment: Luciferase reporter gene assay of inhibitory effect against RORγ transcriptional activity (GAL4-mRORγ plasmid in CHO cells); format: cell-based; settings: read-out: LUC EC50 mRORg
T2 construct: mouse, NM_011281.2 and from Ile251 to Lys516; expressed in transfected cells; host or cells: CHO cells (transient co-transfection with pG5-Luc reporter)
T2 sequence (P51450 251-516): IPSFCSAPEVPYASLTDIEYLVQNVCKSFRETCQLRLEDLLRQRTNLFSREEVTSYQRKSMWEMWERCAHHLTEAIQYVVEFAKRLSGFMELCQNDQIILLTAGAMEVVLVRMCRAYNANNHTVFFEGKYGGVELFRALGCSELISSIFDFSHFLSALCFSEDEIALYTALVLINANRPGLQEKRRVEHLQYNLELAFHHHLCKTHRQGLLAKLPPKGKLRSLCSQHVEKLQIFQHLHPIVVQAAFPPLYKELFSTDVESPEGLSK
Summary of the method: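 Readout is intracellular luciferase after 2-day compound exposure (8 concentrations, 0.1% DMSO) in CHO cells expressing GAL4 fused to mouse RORγ LBD residues Ile251–Lys516 plus pG5-Luc reporter. EC50 fitted from %-of-control; points showing resazurin-detected cytotoxicity dropped.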

## Cc1ccc(NC(=O)CCc2noc([C@H]3C[C@@H](CC(C)(C)C)C3)c2C2CC2)c(C)c1 [Example F-721]
Human RORγ
  EC50: < 3 µM
Mouse RORγ
  EC50: < 3 µM

## CC(C)(C)C[C@H]1C[C@@H](c2onc([C@@H](CCC(=O)O)CC(=O)NS(=O)(=O)C3CC3)c2C2CC2)C1 [Example F-722]
Human RORγ
  EC50: > 3 µM
Mouse RORγ
  EC50: > 3 µM

## CC(C)(C)C[C@H]1C[C@@H](c2onc([C@@H](CCC(=O)O)CC(=O)NS(=O)(=O)c3ccccc3)c2C2CC2)C1 [Example F-723]
Human RORγ
  EC50: > 3 µM
Mouse RORγ
  EC50: > 3 µM

## COCC(C)(C)C[C@H]1C[C@@H](c2onc([C@@H](CCC(=O)O)CC(=O)Nc3ccc(CO)cc3Cl)c2C2CC2)C1 [Example F-724]
Human RORγ
  EC50: < 3 µM
Mouse RORγ
  EC50: < 3 µM

## COCC(C)(C)C[C@H]1C[C@@H](c2onc([C@@H](CCC(=O)O)CC(=O)Nc3ccc(C)cc3Cl)c2C2CC2)C1 [Example F-725]
Human RORγ
  EC50: < 3 µM
Mouse RORγ
  EC50: < 3 µM

## CC(C)(CO)C[C@H]1C[C@@H](c2onc([C@@H](CCC(=O)O)CC(=O)Nc3ccc(CO)cc3Cl)c2C2CC2)C1 [Example F-726]
Human RORγ
  EC50: > 3 µM
Mouse RORγ
  EC50: > 3 µM

## Cc1ccc(NC(=O)C[C@H](CCC(=O)O)c2noc([C@H]3C[C@@H](CC(C)(C)C(=O)O)C3)c2C2CC2)c(Cl)c1 [Example F-727]
Human RORγ
  EC50: > 3 µM
Mouse RORγ
  EC50: > 3 µM

## CNC(=O)C(C)(C)C[C@H]1C[C@@H](c2onc([C@@H](CCC(=O)O)CC(=O)Nc3ccc(C)cc3Cl)c2C2CC2)C1 [Example F-728]
Human RORγ
  EC50: < 3 µM
Mouse RORγ
  EC50: < 3 µM

## Cc1ccc(NC(=O)CCc2noc(CCCC(C)(C)C)c2C2CC2)c(Cl)c1 [Example F-729]
Human RORγ
  EC50: < 3 µM
Mouse RORγ
  EC50: < 3 µM

## CC(=O)c1ccc(NC(=O)C[C@H](CCC(=O)O)c2noc([C@H]3C[C@@H](CC(C)(C)CO)C3)c2C2CC2)c(Cl)c1 [Example F-731]
Human RORγ
  EC50: > 3 µM
Mouse RORγ
  EC50: > 3 µM

## Cc1ccc(NC(=O)CCc2cc([C@H]3C[C@@H](CC(C)(C)C)C3)on2)c(Cl)c1 [Example F-733]
Human RORγ
  EC50: < 3 µM
Mouse RORγ
  EC50: < 3 µM

## Cc1ccc(NC(=O)CCc2noc(C34CC5CC(CC(C5)C3)C4)c2C2CC2)c(Cl)c1 [Example F-734]
Human RORγ
  EC50: < 3 µM
Mouse RORγ
  EC50: < 3 µM

## COc1cc(C)ccc1CNC(=O)CCc1noc(C23CC4CC(CC(C4)C2)C3)c1C1CC1 [Example F-735]
Human RORγ
  EC50: < 3 µM
Mouse RORγ
  EC50: < 3 µM

## CC(C)(C)C[C@H]1C[C@@H](c2onc([C@@H](CCC(=O)O)CC(=O)NCC3CCOCC3)c2C2CC2)C1 [Example F-736]
Human RORγ
  EC50: > 3 µM
Mouse RORγ
  EC50: > 3 µM

## C=CCCCCc1onc(CCC(=O)Nc2cccc(C=C)c2)c1C1CC1 [Example F-738]
Human RORγ
  EC50: > 3 µM
Mouse RORγ
  EC50: > 3 µM

## CC(C)(C[C@H]1C[C@@H](c2onc([C@@H](CCC(=O)O)CC(=O)Nc3ccc(CO)cc3Cl)c2C2CC2)C1)C(=O)O [Example F-739]
Human RORγ
  EC50: > 3 µM
Mouse RORγ
  EC50: > 3 µM

## Cc1ccc(NC(=O)CCc2noc(C(F)(F)c3cc(C(C)(C)C)no3)c2C2CC2)c(Cl)c1 [Example F-740]
Human RORγ
  EC50: < 3 µM
Mouse RORγ
  EC50: < 3 µM

## COc1cc(C)ccc1CNC(=O)CCc1noc(C(F)(F)c2cc(C(C)(C)C)no2)c1C1CC1 [Example F-741]
Human RORγ
  EC50: < 3 µM
Mouse RORγ
  EC50: < 3 µM

## Cc1ccc(NC(=O)CCc2noc(C(F)(F)c3cc(C(C)(C)C)on3)c2C2CC2)c(Cl)c1 [Example F-745]
Human RORγ
  EC50: < 3 µM
Mouse RORγ
  EC50: < 3 µM

## CC(C)(C[C@H]1C[C@@H](c2onc(C(CCC(=O)O)CC(=O)Nc3ccc(C(=O)O)cc3Cl)c2C2CC2)C1)C(=O)O (stereo partly shown) [Example F-746]
Human RORγ
  EC50: > 3 µM
Mouse RORγ
  EC50: > 3 µM
